Experimental data: patent US8633184B2, “Benzoazepin-oxy-acetic acid derivatives as PPAR-delta agonists used for the increase of HDL-C, lower LDL-C and lower cholesterol” (Janssen Pharmaceutica N.V., priority 2006, dated 2014)
pEC50: −log10 of the molar value.

Experiments:
Assay type in all cases: cell-based
Conditions in all cases: 18-24 hrs
[1] = molecular target: T1, PPARδ (Homo sapiens, UniProt Q03181); assay: Transfection assay, GAL4-PPARδ LBD luciferase reporter in HEK293 cells
T1 construct: expressed in transfected cells; host or cells: HEK293
T1 sequence (Q03181 211-439 limits assumed): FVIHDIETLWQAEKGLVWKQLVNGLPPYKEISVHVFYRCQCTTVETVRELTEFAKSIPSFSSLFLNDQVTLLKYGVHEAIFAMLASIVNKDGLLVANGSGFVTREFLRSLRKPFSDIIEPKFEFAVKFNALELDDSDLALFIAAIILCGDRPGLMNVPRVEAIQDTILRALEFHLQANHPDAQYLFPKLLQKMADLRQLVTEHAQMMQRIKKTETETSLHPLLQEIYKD
Description: (§1) HEK293 cells were grown in DMEM/F12 medium supplemented with 10% FBS and glutamine (Invitrogen) and incubated in a 5% CO2 incubator at 37° C. The cells were co-transfected using DMRIE-C reagent (Invitrogen) in serum free medium (Opti-MEM, Invitrogen) with two mammalian expression plasmids, one containing the DNA sequence coding for the ligand binding domains of either PPARα, γ or δ fused to the yeast GAL4 DNA binding domain and the other containing the promoter sequence of the yeast GAL4 (UAS) fused to the firefly luciferase cDNA reporter. The next day, the medium was changed to DMEM/F12 medium supplemented with 5% charcoal treated serum (Hyclone) and glutamine. After 6 hrs the cells were trypsinized and seeded at a density of 50,000 cells/well into 96 well plates and incubated overnight as above. The cells were then treated with test compounds or vehicle and incubated for 18-24 hrs as above. Luciferase reporter activity was measured using the Steady-Glo Luciferase Assay Kit from Promega. DMRIE-C Reagent was purchased from GIBCO Cat. No. 10459-014. OPTI-MEM I Reduced Serum Medium was purchased from GIBCO (Cat. No. 31985). Steady-Glo Luciferase Assay Kit was purchased from Promega (Part #E254B).
(§2) A variety of example compounds have been made and tested, with a range of in vitro results. Below, in Table 2, are representative compounds and data; in some cases, where multiple EC50's are shown, multiple measurements were taken. Naturally, different compounds in Formula (I) may have not activities identical to any one compound below.

[2] = molecular target: T2, PPARγ (Homo sapiens, UniProt P37231); assay: Transfection assay, GAL4-PPARγ LBD luciferase reporter in HEK293 cells
T2 construct: expressed in transfected cells; host or cells: HEK293
T2 sequence (P37231 238-503 limits assumed): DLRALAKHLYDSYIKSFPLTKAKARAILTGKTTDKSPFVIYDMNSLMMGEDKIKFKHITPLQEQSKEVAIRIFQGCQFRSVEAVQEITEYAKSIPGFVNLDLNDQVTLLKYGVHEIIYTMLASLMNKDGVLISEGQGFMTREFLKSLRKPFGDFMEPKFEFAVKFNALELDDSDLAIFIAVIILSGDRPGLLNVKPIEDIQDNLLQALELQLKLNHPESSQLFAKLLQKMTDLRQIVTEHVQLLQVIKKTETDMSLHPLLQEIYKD
Description: as §1, §2

[3] = molecular target: T3, PPARα (Homo sapiens, UniProt Q07869); assay: Transfection assay, GAL4-PPARα LBD luciferase reporter in HEK293 cells
T3 construct: expressed in transfected cells; host or cells: HEK293
T3 sequence (Q07869 239-466 limits assumed): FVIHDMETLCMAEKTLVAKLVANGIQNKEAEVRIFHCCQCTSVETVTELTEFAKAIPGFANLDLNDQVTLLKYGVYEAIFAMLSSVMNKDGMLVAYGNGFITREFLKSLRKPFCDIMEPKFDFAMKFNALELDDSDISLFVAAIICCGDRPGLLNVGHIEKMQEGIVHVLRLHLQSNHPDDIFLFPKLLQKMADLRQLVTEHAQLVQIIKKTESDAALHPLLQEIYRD
Description: as §1, §2

Structure (SMILES) | pEC50 [1] | pEC50 [2] | pEC50 [3]
O=C(O)COc1ccc2c(c1)CCN(Cc1ccnc(-c3ccc(C(F)(F)F)cc3)n1)CC2 [compound 41] | < 6.00 | < 5.52 | < 5.52
O=C(O)COc1ccc2c(c1)CCN(Cc1cncc(-c3ccc(C(F)(F)F)cc3)n1)CC2 [compound 42] | < 6.00 | < 5.52 | < 5.52
O=C(O)COc1ccc2c(c1)CCN(Cc1cccc(-c3ccc(C(F)(F)F)cc3)n1)CC2 [compound 43] | < 5.52 | < 5.52 | < 5.52
COc1ccc(-c2ccc(CN3CCc4ccc(OCC(=O)O)cc4CC3)o2)cc1 [compound 44] | < 6.00 | < 5.52 | < 5.52
O=C(O)COc1ccc2c(c1)CCN(CCc1ccc(-c3ccc(C(F)(F)F)cc3)o1)CC2 [compound 45] | < 6.00 | < 5.52 | < 5.52
O=C(O)COc1ccc2c(c1)CCN(Cc1ccc(-c3ccc(C(F)(F)F)cc3)nc1)CC2 [compound 46] | 6.51 | < 5.52 | < 6.00
O=C(O)COc1ccc2c(c1)CCN(Cc1cccc(-c3ccc(C(F)(F)F)cc3)c1)CC2 [compound 47] | < 5.52 | < 5.52 | < 5.52
